According to patent publication US20050163835A1, “Pharmaceutical formulation of iressa comprising a water-soluble cellulose derivative” (AstraZeneca AB, priority 2002, published 2005):

Assays:
[1] = pH shift dissolution (precipitation) test; assay type: physicochemical
Description: The formulations described in the examples above were dissoluted in media comprising 500 ml 0.07N HCl (approximately pH 1.5) and sodium chloride (0.2% w/v) for one hour at 37° C. (paddle speed 100 rpm). A 5 ml sample was taken at 60 minutes and the media replaced.
10 ml of a 2.5M KH2PO4/16.72% (w/v) NaOH solution was then added to shift the pH to 6.5. 5ml samples were then removed with a plastic syringe at 2, 5, 15, 30, 45 and 60 minutes after pH adjustment and media replaced after every sampling time point. Each sample was centrifuged (14,000 rpm) at ambient temperature for 15 minutes and then analysed by HPLC using the following conditions:

[2] = pH-dependent aqueous solubility of the Agent; assay type: physicochemical; conditions: free-base form

For `COc1cc2ncnc(Nc3ccc(F)c(Cl)c3)c2cc1OCCCN1CCOCC1` [Agent, 4-(3′-chloro-4′-fluoroanilino)-7-methoxy-6-(3-morpholinopropoxy)quinazoline], the “% Agent in solution at 2 mins after pH adjustment to pH 6.5” value ([1]; 2 mins after shift from pH 1.5 to pH 6.5, HPLC of centrifuged sample) was 6.5%, the “% Agent in solution at 5 mins after pH adjustment to pH 6.5” value ([1]; 5 mins after shift from pH 1.5 to pH 6.5, HPLC of centrifuged sample) was 6.9% and the “% Agent in solution after 60 mins in acidic media (~pH 1.5)” value ([1]; 500 ml 0.07N HCl, 0.2% w/v NaCl, 37° C., before pH shift, HPLC) was 102.6%. For the same molecule, the “solubility in aqueous media” value ([2]; above pH 7) was “practically insoluble” and the “aqueous solvent required to dissolve 1 g of Agent” value ([2]; pH 6) was ≥ 10000 mL.
